Experimental findings from patent US10751396B2, “Early hyperlipidemia promotes endothelial activation via a caspase-1-sirtuin 1 pathway” (Temple University—Of The Commonwealth System of Higher …, priority 2015, dated 2020) are described below.

What all share (assay type): cell-based, human
One assay deals with caspase-1. The experiment in a line: Caspase-1 activity assay (FAM-YVAD-FMK, flow cytometry) in HAECs. To be noted: 6 h, oxLDL (100 μM), LPA (30 μM), LPC (30 μM). As for the experimental part:
(§1) Active caspase-1 level was determined with APO LOGIX kit (Cell Tech., Mountain View, Calif.). The kit contains a carboxyfluorescein (FAM) [Excitation/Emission (nm):490/520]-labeled peptide fluoromethyl ketone (FMK) caspase-1 inhibitor (FAM-YVAD-FMK), which irreversibly binds to active caspase-1. All procedures were performed according to the manufacturer's instruction. Briefly, HAECs (≤passage 9) were cultured in 6-well plates and serum starved overnight to quiescent the cells before treatment. Next day, HAECs were treated with indicated stimuli for 6 hr. Cells were then digested by trypsin-EDTA and suspended at 1×10^6 cells/ml. 150 μl of cell suspension were incubated at 37° C. with 1× FAM-YVAD-FMK for 1 hour then washed with 1× washing buffer. Unfixed caspase-1 stained cells were then incubated with 7-aminoactinomycin D (7-AAD; cell membrane integrity marker) (BD Pharmingen, San Diego, Calif.) for no more than 10 min before analysis. The Calibur flow cytometer (BD Biosciences, San Jose, Calif.) was used to determine caspase-1 active (Caspase-1^+) and 7-AAD^+ cells. Data were analyzed with the FlowJo software (Tree Star, Ashland, Oreg.).
Active caspase-1 levels were determined with an APO LOGIX kit (Cell Technology, Mountain View, Calif.). The kit contained a carboxyfluorescein (FAM) (excitation/emission (nm): 490/520)-labeled peptide fluoromethyl ketone (FMK) caspase-1 inhibitor (FAM-YVAD-FMK), which irreversibly binds to active caspase-1. The procedures were performed according to the manufacturer's instructions. HAECs were cultured in 6-well dishes and serum-starved overnight to ensure quiescence of the cells before treatment. The next day, HAECs were treated with the indicated stimuli for 6 h. Cells were harvested and suspended at 1×10^6 cells/ml. The cell suspension (150 μl) was incubated in 37° C. with 1× FAM-YVAD-FMK for 1 h. After being washed with 1× washing buffer, the cells were fixed with fixative buffer and stored in 4° C. for up to 24 h. To determine the cell membrane integrity, the unfixed cells were stained with 7-AAD (Pharmingen) (0.25 μg/test) and incubated for no more than 10 min before analysis.
(§2) All flow cytometric data were analyzed by using the FlowJo software (Tree Star, Ashland, Oreg.). The uncompensated data were collected from the flow cytometer (either FACSCalibur flow cytometer or LSRII flow cytometer; BD Biosciences). Forward and side scatter gates were used to select live cell populations from clumps and debris. The positive gating was determined by its matched IgG control, and single staining was used to determine the compensation parameter. Different gates were established to analyze the data according to cell size as described in our figures.

The test system of assay [1] is HAECs. The experiment in a line: Caspase-1/7-AAD co-staining for pyroptosis in HAECs. As to the method:
FIG. 7, comprising FIG. 7A through FIG. 7D, depicts experimental results showing Oxidized low-density lipoprotein (oxLDL) and its components induce caspase-1 (casp-1) activation in human aortic endothelial cells (HAECs) via a reactive oxygen species (ROS)-mediated p-athway. FIG. 7A depicts pyroptotic cell death in HAECs caused by activation of casp-1 induced by oxLDL and its components. HAECs were cultured and treated with low-density lipoprotein (LDL; 100 μg/mL), oxLDL (100 μg/mL), oxLDL-derivatives lysophosphatidic acid (LPA, 100 μM), or lysophosphatidylcholine (LPC, 15 μM) as indicated for 6 hours. Casp-1 activity was determined by a commercial kit, and 7-aminoactinomycin D (7-AAD) fluorescence dye was used to determine the cell membrane integrity. Casp-1^+/7-AAD^+ cells were gated as pyrototic cells (Q3), casp-1^+ single positive cells (Q2) were gated as inflammatory cells, and 7-AAD^+ single positive cells (Q4) were gated as necrotic cells. FIG. 7B depicts ROS levels in pyroptotic cells. ROS levels were determined by dihydroethidium (DHE) fluorescence dye staining, and the mean fluorescence intensity (MFI) of DHE^+ cell fraction was determined. […] Allopurinol (1 mmol/L) and Apocynin (100 μM) were added 1 hour before oxLDL treatment. HAECs were then treated with oxLDL (100 μg/mL) for 6 hours and stained for caspase-1 activity. FIG. 7D depicts mRNA upregulation of inflammasome components, including NLRP1 (Nod-like receptor protein 1), NLRP3 (Nod-like receptor 3), PYCARD (or ASC, inflammasome adaptor apoptosis-associated speck-like protein containing a CARD), caspase-1, and IL-1β (interleukin-1β) in HAECs treated with oxLDL. Data are expressed as mean±SE. *P<0.05, changes with statistical significance.
as §1
Active caspase-1 levels were determined with an APO LOGIX kit (Cell Technology, Mountain View, Calif.). The kit contained a carboxyfluorescein (FAM) (excitation/emission (nm): 490/520)-labeled peptide fluoromethyl ketone (FMK) caspase-1 inhibitor (FAM-YVAD-FMK), which irreversibly binds to active caspase-1. The procedures were performed according to the manufacturer's instructions. HAECs were cultured in 6-well dishes and serum-starved overnight to ensure quiescence of the cells before treatment. The next day, HAECs were treated with the indicated stimuli for 6 h. Cells were harvested and suspended at 1×10^6 cells/ml. […]

For a further assay, the system named is VEGFR-2. Briefly: VEGFR-2 expression in LPC-treated HAECs by flow cytometry. To be noted: LPC (30 μM) 6 h; caspase-1 inhibitor or Sirt-1 activator 10 μM pretreatment where named. As to the method:
FIG. 17, comprising FIG. 17A through FIG. 17D, depicts experimental results showing inhibition of caspase-1 activation and activation of Sirt-1 increase VEGFR-2 expression. FIG. 17A depicts experiments showing caspase-1 depletion increases VEGFR-2 expression. A microarray data-mining analysis was performed by analyzing the indicated microarray dataset deposited in the National Institutes of Health NCBI-Geo-profile database. The gene expression value was determined based on the relative threshold cycle on the database. […] In addition, depletion of caspase-1 slightly increases the expressions of the caspase-1-cleaving substrates cytokines IL-1β and IL-18. […] FIG. 17B depicts caspase-1 inhibition and Sirt-1 activation increase the expression of VEGFR-2 after LPC treatment in HAECs. HAECs pretreated with the caspase-1 inhibitor (10 μM) and Sirt-1 activator (10 μM) and then treated with LPC (30 μM) for 6 h have an increased expression of VEGFR-2. FIG. 17C depicts three cell size gates were established, small, medium, and large according to FSC (y axis); and VEGFR-2 expression (x axis) was measured in those gated cells to analyze differential VEGFR-2 expressions according to the cell size after treatments with LPC (30 μM), caspase-1 inhibitor (10 μm), and Sirt-1 activator (10 μm) for 6 h. […] FIG. 17D depicts bar graphs showing the quantitation data of VEGFR-2 expressions. *, p<0.05.
as §2
In general terms: A flow cytometer gives signals particle by particle.

Assay [2] concerns HAECs. The experiment in a line: Tube formation assay in Matrigel. The settings on record: LPC (30 μm) with or without caspase-1 inhibitor (10 μm), Matrigel 16 h. As to the method: FIG. 18, comprising FIG. 18A and FIG. 18B, depicts experimental results showing tube formation, as an in vitro model of angiogenesis, is improved after caspase-1 inhibition in LPC-treated cells. FIG. 18A depicts experiments where HAECs were treated with LPC (30 μm) and caspase-1 inhibitor (10 μm) for 6 h. After the treatment, the cells were incubated in the Matrigel for 16 h for the analysis of tube formation. FIG. 18B depicts bar graph showing the increases of total master segment lengths after the inhibition of caspase-1 in LPC-treated HAECs.*, p<0.05.
The Matrigel matrix (Bedford, Mass.) was used to coat the 96-well plates. Human aortic endothelial cells were cultured. The cells were treated with caspase-1 inhibitor (Anaspec, Fremont, Calif.) and proatherogenic stimulus LPC for 24 h. HAECs were harvested and suspended. Cell concentration was determined and added to each Matrigel-coated well and incubated for 16-18 h. Images were collected using the inverted microscope.

As to `CCCCCCCCCCCCCCCC(=O)OC[C@@H](O)COP(=O)([O-])OCC[N+](C)(C)C` [LPC, 1-hexadecanoyl-sn-glycerol-3-phosphorylcholine], in the assay with caspase-1 (large FSC gate), the “caspase-1 activation in larger size of HAECs” value is listed as 52.8%. In addition, the “caspase-1 activation in smaller size of HAECs” value in the assay on caspase-1 (small FSC gate) is reported as 38.2%. The “induction of inflammation, pyroptosis and necrosis (caspase-1/7-AAD gating)” value in the assay on HAECs [1] (HAECs, 6-hour stimulation, oxLDL 100 μg/mL, LPA 100 μM, LPC 15 μM) was “induced inflammation, inflammatory cell death (pyroptosis), and necrosis”. Also, in the assay with HAECs [1] (LPC-treated HAECs), the “7-AAD+ pyroptosis in large size of caspase-1(+) HAECs” value stood at 9.93%, the “7-AAD+ pyroptosis in medium size of caspase-1(+) HAECs” value turned out to be 20.17% and the “7-AAD+ pyroptosis in smaller size of caspase-1(+) HAECs” value was 38.77%. In addition, in the assay with VEGFR-2, the “VEGFR-2 expression in the larger size of HAECs” value is recorded as 34.3%, the “VEGFR-2 expression in the medium size of HAECs” value stood at 22.1% and the “VEGFR-2 expression in the smaller size of HAECs” value is listed as 11.3%. For the same molecule, in the assay with HAECs [2], the “total master segment length of tube formation” value is listed as 317 μm.
